From patent publication US12616203B2, “Use of 3-isoxazolidinones compounds as selective herbicides” (FMC Corporation, priority 2014, dated 2026)
“Also recorded” adds a separate entry of the source. Like-named read-outs stand apart in the source and are kept apart here.

What was measured:
[1] = test system: sweet corn, yellow corn, and sorghum; conditions: PRE; crop and rate in the words
From the text: Treatments were also applied ot sweet corn, yellow corn, and sorghum.
Treatments were applied before the emergence of Jimsonweed, velvetleaf, hairy beggarticks, common cocklebur, barnyardgrass, sweet corn, yellow corn, and sorghum. Plant species were planted in fiber flats (6″×10″) containing Pennington soil and flats were watered well before application and watered lightly after application. Flats were watered and fertilized routinely after treatment application.

weeds; Wheat and canola = test: Ex44 PRE greenhouse; assay type: in vivo; conditions: weed and rate in the words
From the text: Redroot pigweed (Amaranth retroflexus, AMARE), Italian ryegrass (Lolium perenne. multiflorum, LOLMU), wild mustard (Sinapis arvensis, SINAR), annual bluegrass (Poa annua POAAN), wild oat (Avena fatua, AVEFA), blackgrass (Alopecurus myosuroides, ALOMY), common lambsquarters (Chenopodium album, […] (Phalaris minor, PHAMI), common chickweed (Stellaria media, STEME), corn poppy (Papaver rhoeas, PAPRH) and silky […]). Crops tested included wheat and canola. […] Treatments were applied before the emergence of redroot pigweed, Italian ryegrass, wild oat, blackgrass, littleseed canarygrass, common chickweed, common lambsquarters, corn poppy, wild mustard, annual bluegrass, silky […], canola, and wheat. […] Flats were watered and fertilized routinely after treatment application.

Blackgrass = test: Ex13 PRE 2,4-DC + diflufenican, % control 28 DAT, Colby; assay type: in vivo, Alopecurus myosuroides
From the text: (§1) Pyroxasulfone (KIH-485, 85%) at 74.3 g ai/ha, pendimethalin (Prowl 3.3EC, 37.4%) at 1200 g ai/ha, or a premix of chlorsulfuron plus metsulfuron-methyl (Report Extra, 75%) at 15.8 g ai/ha were applied as commercial standards. […] Treatments were replicated 3 times and flats were watered after planting before the treatment and lightly watered after treatment application. Thereafter flats were watered and fertilized routinely.

common chickweed = test: Ex14 POST 2,4-DC + bromoxynil, % control 28 DAT, Colby; assay type: in vivo, Stellaria media
From the text: The study further assessed post crop safety on Wheat and Barley.
Nonionic surfactant at 0.5% (v/v) was included with commercial standards application. No adjuvant was applied with any other treatments. All plant species were direct seeded into 3″ plastic pots using metro-mix as growth media. At treatment application common lambsquarters was 1.75″, common chickweed was 2″, wild mustard was 2.25″, wild oat was 5.5″, wild buckwheat was 2-5″, Italian ryegrass was 2-3″, wheat was 5.5″, and barley was 4.5″ in height. Plants were watered well before application and not watered 24 h after application. Plants were watered and fertilized routinely after treatment application. Each treatment was replicated four times.

Wild mustard [2] = test: Ex13 PRE 2,4-DC + diflufenican, % control 28 DAT, Colby; assay type: in vivo, Sinapis arvensis
From the text: as §1

wheat = assay type: in vivo; conditions: 14 DAT, POST, 2,4-DC 210 g ai/ha
Method: (§2) Treatments were applied to wheat and barley crops.
(§3) Nonionic surfactant was added at 0.5% v/v in all treatments. Treatments were applied to wheat (5.5″), barley (5″), wild oat (5.5″), common chickweed (2″), wild buckwheat (3″), and common lambsquarters (2″). All plant species were direct seeded into 3″ plastic pots using metro-mix as growth media and pots were watered well before application and watered 24 h after application. Plants were watered and fertilized routinely after treatment application. Each treatment was replicated four times.

Barley = assay type: in vivo; conditions: 14 DAT
Method: as §2, §3

Wild buckwheat [3] = test: Ex34 PRE 2,4-DC + napropamide, % control, Colby; assay type: in vivo, Polygonum convolvulus; conditions: 28 DAT
From the text: (§4) Thereafter flats were watered and fertilized routinely.

Wild mustard [4] = test: Ex35 PRE 2,4-DC + dimethachlor + napropamide, % control 28 DAT, Colby; assay type: in vivo, Sinapis arvensis
From the text: Crops screened were wheat and canola.

Wild buckwheat [5] = test: Ex15 PRE 2,4-DC + S-metolachlor, % control 28 DAT, Colby; assay type: in vivo, Polygonum convolvulus
From the text: The weeds tested in this study were redroot pigweed (Amaranthus retroflexus, AMARE), Jimsonweed (Datura stramonium, DATST), black nightshade (Solanum nigrum, SOLNI), large crabgrass (Digitaria sanguinalis, DIGSA), Pennsylvania smartweed (Polygonum pensylvanicum, POLPY), horseweed (Conyza canadensis, ERICA), wild buckwheat (Polygonum convolvulus, POLCO). The crop tested was Corn (var. Viking).
To determine PRE efficacy and corn injury, five rates of each 2,4 DC (36.7% CS) and S-metolachlor (Dual II Magnum®, 82.4%) were applied either alone or as tank-mix. 2,4 DC was applied at 0, 125, 170, 210, or 250 g ai/ha and S-metolachlor was applied at 0, 267, 534, 801, or 1070 g ai/ha. Additional treatments included application of premix of pyroxasulfone plus fluthiacet-methyl (Anthem™ 23.3%) at 169.9 g ai/ha and tank-mix of mesotrione (Callisto®, 40%) at 123 g plus S-metolachlor at 1252 g. Treatments were applied just after the planting of large crabgrass, Jimsonweed, black nightshade, redroot pigweed, Pennsylvania smartweed, horseweed, wild buckwheat, and corn.
Flats were watered and fertilized routinely after treatment application. Each treatment was replicated three times. […] Corn injury was rated for bleaching and stunting.

weeds = test: Ex20 PRE greenhouse; assay type: in vivo; conditions: weed and rate in the words
From the text: Herbicides: • 2,4 DC-21 (36.7% CS): 125, 170, 210, or 250 g ai/ha alone and as tank-mix with dimethenamid-P • Dimethanamid-P (Outlook, 63.9%): 250, 375, 500 g ai/ha in combination with 2,4 DC and alone, additional treatment alone at 750 g ai/ha. • Metazachlor (Butisan 43.1%): 500 g ai/ha
Herbicides included as standards for comparison were metazachlor plus dimethenamid-P (500 g) as tank mix combination. […] Treatments were replicated 3 times. […] Thereafter flats were watered and fertilized routinely.

Littleseed canarygrass = test: Ex34 PRE 2,4-DC + napropamide, % control, Colby; assay type: in vivo, Phalaris minor; conditions: 28 DAT
From the text: as §4

[6] = test system: weeds; corn, sweet corn, and sorghum; test: Ex37 PRE greenhouse; assay type: in vivo; conditions: weed and rate in the words
From the text: S-metolachlor (DUAL II MAGNUM®, 82.4%) at 525 g ai/h plus atrazine at 560 g ai/h was included as a standard for comparison. […] Thereafter flats were watered and fertilized routinely.

CC1(C)CON(Cc2ccc(Cl)cc2Cl)C1=O [2,4-DC, 2-(2,4-dichlorophenyl)methyl-4,4-dimethyl-3-isoxazolidinone]
crop safety in words [1]: alone was safe on sweet corn and sorghum at the lowest rate while safe on yellow corn at 50 or 100 g ai/ha
weed control in words (weeds; Wheat and canola): alone provided control of corn poppy at ≥100 g, Italian ryegrass at ≥200 g, lambsquarters, 400 g, blackgrass at ≥200 g, silky windgrass at ≥100 g and chickweed at all rates
X (Blackgrass; 2,4-DC alone 125 g ai/ha): 23%
X (Blackgrass; 2,4-DC alone 170 g ai/ha): 53%
X (Blackgrass; 2,4-DC alone 210 g ai/ha): 66%
X (Blackgrass; 2,4-DC alone 250 g ai/ha): 68%
X (common chickweed; 2,4-DC alone 125 g ai/ha): 9%
X (common chickweed; 2,4-DC alone 170 g ai/ha): 7%
X (common chickweed; 2,4-DC alone 210 g ai/ha): 14%
X (common chickweed; 2,4-DC alone 250 g ai/ha): 28%
X (Wild mustard [2]; 2,4-DC alone 125 g ai/ha): 10%
X (Wild mustard [2]; 2,4-DC alone 170 g ai/ha): 15%
X (Wild mustard [2]; 2,4-DC alone 210 g ai/ha): 26%
X (Wild mustard [2]; 2,4-DC alone 250 g ai/ha): 23%
% crop injury for 2,4-DC alone (wheat): 31%
% crop injury for 2,4-DC alone (Barley; POST, 2,4-DC 125 g ai/ha): 17%
% crop injury for 2,4-DC alone (Barley; POST, 2,4-DC 170 g ai/ha): 17%
% crop injury for 2,4-DC alone (Barley; POST, 2,4-DC 210 g ai/ha): 18%
% crop injury for 2,4-DC alone (Barley; POST, 2,4-DC 250 g ai/ha): 23%
X (Wild buckwheat [3]; 2,4-DC alone 31 g ai/ha): 10%
X (Wild buckwheat [3]; 2,4-DC alone 63 g ai/ha): 8%
X (Wild buckwheat [3]; 2,4-DC alone 125 g ai/ha): 8%
X (Wild buckwheat [3]; 2,4-DC alone 250 g ai/ha): 23%
X (Wild buckwheat [3]; 2,4-DC alone 375 g ai/ha): 37%
X (Wild mustard [4]; 2,4-DC alone 50 g ai/ha): 12%
X (Wild mustard [4]; 2,4-DC alone 100 g ai/ha): 37%
X (Wild mustard [4]; 2,4-DC alone 200 g ai/ha): 47%
X (Wild buckwheat [5]; 2,4-DC alone 125 g ai/ha): 15%
X (Wild buckwheat [5]; 2,4-DC alone 170 g ai/ha): 43%
X (Wild buckwheat [5]; 2,4-DC alone 210 g ai/ha): 30%
X (Wild buckwheat [5]; 2,4-DC alone 250 g ai/ha): 32%
weed control in words (weeds): applied alone at 125 g ai/ha controlled (≥85% injury) Canada thistle, giant foxtail, goosegrass, and common chickweed
X (Littleseed canarygrass; 2,4-DC alone 31 g ai/ha): 8%
X (Littleseed canarygrass; 2,4-DC alone 63 g ai/ha): 12%
X (Littleseed canarygrass; 2,4-DC alone 125 g ai/ha): 18%
X (Littleseed canarygrass; 2,4-DC alone 250 g ai/ha): 27%
X (Littleseed canarygrass; 2,4-DC alone 375 g ai/ha): 53%
weed control in words [6]: applied alone at ≥50 g ai/ha controlled barnyardgrass 28 DAT; also recorded: applied alone at ≥200 g controlled velvetleaf and redroot pigweed
